In PubChem BioAssay AID1963870 (Molecular Pharmacology Branch, DTP, NCI, 2024):

System: 292921-168-R-J2-PDC KRAS tumor spheroid viability
Assay: Anticancer human tumor 292921-168-R-J2-PDC patient-derived pancreatic carcinoma cell line growth inhibition [KRAS2]
Settings: spheroids with HUVEC and MSC; for IC50: curve of first compound; for viability, T/C: stronger effect = lower value
How it was run: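 Combination screen of spheroid viability in tumor-cell co-cultures with endothelial (HUVEC) and mesenchymal stem cell stroma. Each agent was tested in half-log dilutions, topping at clinical Cmax or at 10 microM without a known Cmax.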

[1] = second compound 0.1 µM, first compound 0.01 µM
[2] = second compound 0.1 µM, first compound 0.0316 µM
[3] = second compound 0.1 µM, first compound 0.1 µM
[4] = second compound 0.1 µM, first compound 0.316 µM
[5] = second compound 0.1 µM, first compound 1 µM
[6] = second compound 0.1 µM, first compound 3.16 µM
[7] = second compound 0.316 µM, first compound 0.01 µM
[8] = second compound 0.316 µM, first compound 0.0316 µM
[9] = second compound 0.316 µM, first compound 0.1 µM
[10] = second compound 0.316 µM, first compound 0.316 µM
[11] = second compound 0.316 µM, first compound 1 µM
[12] = second compound 0.316 µM, first compound 3.16 µM
[13] = second compound 1 µM, first compound 0.01 µM
[14] = second compound 1 µM, first compound 0.0316 µM
[15] = second compound 1 µM, first compound 0.1 µM
[16] = second compound 1 µM, first compound 0.316 µM
[17] = second compound 1 µM, first compound 1 µM
[18] = second compound 1 µM, first compound 3.16 µM
[19] = second compound 3.16 µM, first compound 0.01 µM
[20] = second compound 3.16 µM, first compound 0.0316 µM
[21] = second compound 3.16 µM, first compound 0.1 µM
[22] = second compound 3.16 µM, first compound 0.316 µM
[23] = second compound 3.16 µM, first compound 1 µM
[24] = second compound 3.16 µM, first compound 3.16 µM
[25] = second compound 10 µM, first compound 0.01 µM
[26] = second compound 10 µM, first compound 0.0316 µM
[27] = second compound 10 µM, first compound 0.1 µM
[28] = second compound 10 µM, first compound 0.316 µM
[29] = second compound 10 µM, first compound 1 µM
[30] = second compound 10 µM, first compound 3.16 µM
[31] = second compound 0.1 µM, first compound 10 µM
[32] = second compound 0.316 µM, first compound 10 µM
[33] = second compound 1 µM, first compound 10 µM
[34] = second compound 3.16 µM, first compound 10 µM
[35] = second compound 10 µM, first compound 10 µM
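Further: drug exposure lasted seven days after spheroids formed for three days.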
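Wherever viability, T/C is given: percent of DMSO vehicle control viability which is 100%.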

Compound | IC50 (second compound 0.1 µM) | IC50 (second compound 0.316 µM) | IC50 (second compound 1 µM) | IC50 (second compound 3.16 µM) | IC50 (second compound 10 µM) | viability, T/C [2] | viability, T/C [3] | viability, T/C [4] | viability, T/C [5] | viability, T/C [6] | viability, T/C [8] | viability, T/C [9] | viability, T/C [10] | viability, T/C [11] | viability, T/C [14] | viability, T/C [15] | viability, T/C [20] | viability, T/C [21] | viability, T/C [26] | viability, T/C [27] | further results
CC1COCCN1c1cc(-c2ccnn2C)c2ccnc(-c3ccn[nH]3)c2n1 (stereo not given) + CC1OCC2(CCN(c3cnc(Sc4ccnc(N)c4Cl)c(N)n3)CC2)C1N | < 10 nM | < 10 nM | < 10 nM | < 10 nM | < 10 nM | 23.8% | 15.9% | 15% | 15% | 16.2% | 20.6% | 14.6% | 13% | 13.3% | 21.9% | 13.4% | 17.8% | 13.4% | 18.2% | 13.1% | viability, T/C [1]: 44.6%; viability, T/C [7]: 38.9%; viability, T/C [12]: 14.5%; viability, T/C [13]: 33.5%; viability, T/C [16]: 12.3%; viability, T/C [17]: 12.3%; viability, T/C [18]: 12.3%; viability, T/C [19]: 28.2%; viability, T/C [22]: 11%; viability, T/C [23]: 10.2%; viability, T/C [24]: 10.9%; viability, T/C [25]: 25.3%; viability, T/C [28]: 10.2%; viability, T/C [29]: 10.7%; viability, T/C [30]: 9.89%
Cn1nccc1Nc1nccc(-c2cc3c(s2)C(C)(C)N(CCN2CCOCC2)C3=O)n1 + CC1OCC2(CCN(c3cnc(Sc4ccnc(N)c4Cl)c(N)n3)CC2)C1N | 39.3 nM | < 31.6 nM | < 31.6 nM | < 31.6 nM | < 31.6 nM | 54.5% | 30.8% | 19.1% | 11.7% | 10.5% | 37.1% | 25.7% | 12.6% | 10.9% | 33.9% | 21% | 26.3% | 19.7% | 24.1% | 17.6% | viability, T/C [31]: 11.7%; viability, T/C [12]: 8.88%; viability, T/C [32]: 9.52%; viability, T/C [16]: 13.1%; viability, T/C [17]: 9.76%; viability, T/C [18]: 8.56%; viability, T/C [33]: 9.6%; viability, T/C [22]: 12.6%; viability, T/C [23]: 8.37%; viability, T/C [24]: 8.01%; viability, T/C [34]: 8.06%; viability, T/C [28]: 11%; viability, T/C [29]: 8.12%; viability, T/C [30]: 6.93%; viability, T/C [35]: 7.35%
CC(=O)OC12COC1CC(O)C1(C)C(=O)C(O)C3=C(C)C(OC(=O)C(O)C(NC(=O)OC(C)(C)C)c4ccccc4)CC(O)(C(OC(=O)c4ccccc4)C21)C3(C)C (stereo not given) + CNCc1ccccc1-c1csc(C(C)Nc2nc(C)nc3cc(OC)c(OC)cc23)c1 | < 10 nM | < 10 nM | < 10 nM | < 10 nM | < 10 nM | 15.9% | 13.8% | 14.6% | 17.2% | 18.1% | 14.4% | 13% | 13% | 15.7% | 15% | 11.5% | 16.1% | 0.07% | 0.09% | 0.06% | viability, T/C [1]: 13.9%; viability, T/C [7]: 15.8%; viability, T/C [12]: 17.5%; viability, T/C [13]: 16.5%; viability, T/C [16]: 12.3%; viability, T/C [17]: 17.4%; viability, T/C [18]: 22.8%; viability, T/C [19]: 0.1%; viability, T/C [22]: 0.03%; viability, T/C [23]: 0.08%; viability, T/C [24]: 19.4%; viability, T/C [25]: 0.14%; viability, T/C [28]: 0.04%; viability, T/C [29]: 0.08%; viability, T/C [30]: 0.17%
CN(C)C/C=C/C(=O)Nc1cc2c(Nc3ccc(F)c(Cl)c3)ncnc2cc1O[C@H]1CCOC1 + CNCc1ccccc1-c1csc(C(C)Nc2nc(C)nc3cc(OC)c(OC)cc23)c1 | > 100 nM | > 100 nM | 48.9 nM | 1.93 nM | < 0.316 nM | 64.5% | 57.5% |  |  |  | 58% | 55% |  |  | 56.1% | 43.7% | 74.7% | 1.26% | 0.13% | 0.17% | viability, T/C (second compound 0.1 µM, first compound 0.000316 µM): 90.9%; viability, T/C (second compound 0.1 µM, first compound 0.001 µM): 86.3%; viability, T/C (second compound 0.1 µM, first compound 0.00316 µM): 72.4%; viability, T/C [1]: 70.3%; viability, T/C (second compound 0.316 µM, first compound 0.000316 µM): 82.4%; viability, T/C (second compound 0.316 µM, first compound 0.001 µM): 80.6%; viability, T/C (second compound 0.316 µM, first compound 0.00316 µM): 70.6%; viability, T/C [7]: 71.1%; viability, T/C (second compound 1 µM, first compound 0.000316 µM): 74.4%; viability, T/C (second compound 1 µM, first compound 0.001 µM): 62%; viability, T/C (second compound 1 µM, first compound 0.00316 µM): 60%; viability, T/C [13]: 59.6%; viability, T/C (second compound 3.16 µM, first compound 0.000316 µM): 105%; viability, T/C (second compound 3.16 µM, first compound 0.001 µM): 91.1%; viability, T/C (second compound 3.16 µM, first compound 0.00316 µM): 0.17%; viability, T/C [19]: 0.11%; viability, T/C (second compound 10 µM, first compound 0.000316 µM): 0.13%; viability, T/C (second compound 10 µM, first compound 0.001 µM): 0.13%; viability, T/C (second compound 10 µM, first compound 0.00316 µM): 0.09%; viability, T/C [25]: 0.08%
O=C(c1cc(Cc2n[nH]c(=O)c3ccccc23)ccc1F)N1CCN(C(=O)C2CC2)CC1 + CNCc1ccccc1-c1csc(C(C)Nc2nc(C)nc3cc(OC)c(OC)cc23)c1 | 6100 nM | 5510 nM | 4920 nM | < 31.6 nM | < 31.6 nM | 98% | 109% | 99.2% | 87.6% | 61.2% | 88.7% | 79% | 76.8% | 74% | 83.5% | 68.3% | 0.14% | 0.13% | 0.33% | 0.1% | viability, T/C [31]: 41.6%; viability, T/C [12]: 62.3%; viability, T/C [32]: 37.6%; viability, T/C [16]: 69.9%; viability, T/C [17]: 70.1%; viability, T/C [18]: 52.3%; viability, T/C [33]: 42.4%; viability, T/C [22]: 0.11%; viability, T/C [23]: 0.1%; viability, T/C [24]: 0.1%; viability, T/C [34]: 0.17%; viability, T/C [28]: 0.1%; viability, T/C [29]: 0.11%; viability, T/C [30]: 0.11%; viability, T/C [35]: 0.19%
